From a melting point compilation (Tetko et al.)

Row | Structure (SMILES) | melting point [°C]
1 | O=C(O)C1COc2ccc(Cl)cc2C1 (stereo not drawn) | 85 to 87
2 | CCOc1ccc(NS(=O)(=O)c2ccc(C)c(C(=O)O)c2)cc1 | 231 to 233
3 | Cc1cc(C)c(C(=O)CCl)c(C)c1 | 68 to 70
4 | Cc1ccc(N2C(=O)Cc3ccccc3C2=O)cc1 | 173 to 175
5 | CC(C)C(Br)C(=O)NCc1ccco1 (stereo not drawn) | 91 to 93
6 | O=C(CCl)NCc1ccc(Cl)cc1 | 107 to 109
7 | CNCC(O)COc1ccccc1C(F)(F)F (stereo not drawn) | 124 to 127
8 | CCN(CC)C(=O)c1ccc(NC(=O)CCl)cc1 | 115 to 117
9 | O=C(O)c1cccc(S(=O)(=O)NCc2cccs2)c1 | 223 to 225
10 | O=C(O)c1cnn(-c2nccs2)c1 | 181 to 183
11 | Cc1nc(N(C)C)sc1C(=O)O | 99 to 101
12 | CC(C)(C)NS(=O)(=O)c1ccc(Cl)c([N+](=O)[O-])c1 | 88 to 90
13 | Cc1cc(=O)n(CC(=O)NC(C)C)c(C)c1C(=O)O | 229 to 231
14 | CC(O)Cc1ccccc1S(C)(=O)=O (stereo not drawn) | 55 to 57
15 | COc1ccc(NC(=O)C(C)Cl)cc1 (stereo not drawn) | 133 to 135
16 | O=C(O)C(c1ccccc1)N1CCCCC1=O (stereo not drawn) | 148 to 150
17 | O=C(Nc1ccc(Br)cn1)C1CCNCC1 | 144 to 146
18 | CC(C)(C)c1ccc(C2(C(=O)O)CCCC2)cc1 | 189 to 191
19 | Nc1ccc(Br)c(I)c1 | 74 to 76
20 | O=C(c1cccc(F)c1)c1ccccn1 | 37 to 39
21 | COc1ccc(C=C2CCCc3c2nc2ccccc2c3C(=O)O)cc1 | 157 to 159
22 | Cn1cnnc1-c1ccnc(N)c1 | 204 to 206
23 | CC(C)C1(C)CC(=O)NC1=O (stereo not drawn) | 78 to 80
24 | CCS(=O)(=O)N1Cc2ccccc2CC1C(=O)O (stereo not drawn) | 110 to 114

Row | Structure (SMILES) | melting point [°C]
25 | CS(=O)(=O)CCC(NC(=O)c1ccccc1Cl)C(=O)O (stereo not drawn) | 159 to 161
26 | Cc1ccc(C)n1-c1nc(CC(=O)O)cs1 | 100 to 102
27 | Cc1cc(N(C)C)ccc1C#N | 59 to 61
28 | COC(=O)c1c(O)cc(=O)n2c1CCC2 | 167 to 169
29 | CC(C)(C)OC(=O)N1CCOCC1C(=O)O (stereo not drawn) | 162 to 164
30 | CN1N=C(C(=O)O)CCC1=O | 156 to 158
31 | CCOC(=O)c1c(N)sc2c1CCN(C(C)C)C2 | 81 to 83
32 | CCOC(=O)COc1ccccc1C(=O)O | 100 to 102
33 | COC(=O)c1ccc(C=O)o1 | 79 to 81
34 | O=C(O)Cc1csc(-c2ccccc2Cl)n1 | 105 to 109
35 | COc1cc(C(=O)O)ccc1OCc1ccc(Br)s1 | 179 to 181
36 | Cc1ccc(S(=O)(=O)NC(C(=O)O)C(C)O)cc1 (stereo not drawn) | 177 to 179
37 | Clc1ccc2[nH]c3c(c2c1)CNCC3 | 226 to 228
38 | Cc1ccc2[nH]c3c(c2c1)CC(C)(C)CC3 | 114 to 116
39 | CCc1cccc2c(CC#N)c[nH]c12 | 115 to 117
40 | Cn1c(S)nc2ccccc21 | 190 to 194
41 | Cc1nc2c(c(C)nn2C)c(C)c1CCC(=O)O | 211 to 213
42 | CCNC(=O)NC(=O)CCl | 138 to 140
43 | O=Cc1coc2ccc(F)cc2c1=O | 95 to 97
44 | N#CCc1cc(Cl)ccc1Cl | 92 to 94
45 | C=Cc1nc(-c2ccc(Cl)cc2)no1 | 62 to 64
46 | CC(C)c1nccn1Cc1cccc(N)c1 | 88 to 90
47 | Nc1nnc(CC2CCCC2)o1 | 174 to 176
48 | OCCNCc1cccc(OCc2ccccc2Cl)c1 | 49 to 50

Row | Structure (SMILES) | melting point [°C]
49 | ON=Cc1ccncn1 | 150 to 152
50 | Clc1cc(Cl)c(SSc2cc(Cl)c(Cl)cc2Cl)cc1Cl | 140 to 144
51 | Cc1nc(-c2cc(C(=O)O)n(C)c2)cs1 | 171 to 173
52 | Cc1cc(C)c2c(Cl)c(C(=O)O)sc2c1 | 286 to 288
53 | Cn1cc(C(=O)O)c(-c2ccccc2)n1 | 204 to 206
54 | CC(C)CC(=O)NNC(=O)C(C)Cl (stereo not drawn) | 174 to 176
55 | O=S(=O)(c1ccc(Cl)nc1)N1CCC(Cc2ccccc2)CC1 | 153 to 157
56 | CS(=O)(=O)c1cc([N+](=O)[O-])c(O)c([N+](=O)[O-])c1 | 221 to 223
57 | CN(c1ccc(-c2csc(N)n2)cc1)S(C)(=O)=O | 205 to 207
58 | COC(=O)C1CC(O)CN1C(=O)c1ccc(F)cc1 (stereo not drawn) | 150 to 152
59 | O=C(CCl)NCc1ccc(C(=O)N2CCOCC2)cc1 | 142 to 144
60 | CC(=O)N1CCN(S(=O)(=O)c2cccc(C(=O)O)c2)CC1 | 258 to 262
61 | Cc1cc(C(=O)CCl)c(C)n1-c1cccc(Br)c1 | 102 to 104
62 | CC(C)(C)OC(=O)N1CCC2(CC1)CC2C(=O)O (stereo not drawn) | 123 to 125
63 | CC(C)(C)c1ccc(Cn2nccc2N)cc1 | < 17
64 | O=C(c1ccc(S(=O)(=O)Cl)cc1)N1CCOCC1 | 110 to 112
65 | COc1ccccc1NC(=O)CC#N | 87 to 90
66 | Cc1cc(C)n(C(C)C(=O)Nc2ccc(N)cc2Cl)n1 (stereo not drawn) | 198 to 200
67 | O=c1[nH]c2cc(Cl)ccc2c(=O)o1 | 250 to 252
68 | NC(=O)NCc1ccc(N)cc1 | 159 to 161
69 | Cc1nnc(S)n1-c1ccccc1 | 224 to 226
70 | O=C(O)CN1CC(=O)NC1=O | 139 to 141
71 | N#Cc1cc([N+](=O)[O-])cnc1O | 259 to 261
72 | Nc1ccccc1-c1nnnn1C1CC1 | 97 to 99

Row | Structure (SMILES) | melting point [°C]
73 | COC(=O)c1sc(C)c(Br)c1O | 95 to 97
74 | OCc1nnc(Cc2ccccc2Br)[nH]1 | 99 to 101
75 | CS(=O)(=O)Nc1ccccc1N | 102 to 104
76 | COc1ccc(COCC(=O)O)cc1 | 41 to 43
77 | CC(C)Oc1ccc(S(N)(=O)=O)c2ccccc12 | 95 to 97
78 | CCC1CCc2[nH]c3ccc(C)cc3c2C1 (stereo not drawn) | 59 to 61
79 | CC(=O)NC(CC(=O)O)c1ccccc1 (stereo not drawn) | 165 to 167
80 | Cc1ccc(C(N)=O)c(F)c1 | 145 to 147
81 | CC(=O)N(C)c1ccccc1C(=O)O | 196 to 198
82 | COc1cc(Br)c(C=O)c(OC)c1 | 89 to 91
83 | CC=C(C)C=CC(=O)O | 89 to 91
84 | COc1cc(C=O)ccc1OCc1ccncc1 | 106 to 108
85 | CSCCC(NS(=O)(=O)c1ccccc1F)C(=O)O (stereo not drawn) | 104 to 106
86 | CC(=O)Nc1cc(F)ccc1-c1csc(N)n1 | 127 to 129
87 | N#Cc1cnc2ccccn12 | 154 to 156
88 | C1C2CC3CC1CC(C2)C31CO1 (stereo not drawn) | 180 to 182
89 | CC1CCCN(C(N)=S)C1 (stereo not drawn) | 103 to 105
90 | CC(C)CC(=O)NC(C(=O)O)C(C)C (stereo not drawn) | 186 to 188
91 | Nc1ccc(-c2cccc(C(F)(F)F)c2)cn1 | 101 to 103
92 | C=CC(=O)Nc1cccc(C#N)c1 | 117 to 119
93 | CC(=O)NCc1cccc(Br)c1 | 75 to 77
94 | CNC(=O)c1ccc(OC)c(N)c1 | 108 to 110
95 | Cc1cc(C#N)c(N)s1 | 100 to 102
96 | O=C(O)c1cccc(OCc2ccccc2)c1 | 113 to 115

Row | Structure (SMILES) | melting point [°C]
97 | CCOC(=O)C(C#N)=Cc1ccncc1 | 101 to 103
98 | CNCc1nc(-c2ccccc2)c[nH]1 | 117 to 119
99 | CC1CCN(S(=O)(=O)N2CCNCC2)CC1 | 61 to 63
100 | Fc1cc(CBr)c2ncccc2c1 | 96 to 98
101 | Cn1c(C(=O)O)c(Cl)c2ccccc21 | 233 to 235
102 | CCOc1cc(CC#N)ccc1OCC(F)(F)F | 40 to 42
103 | Cc1cc(C)c(C(=O)O)[nH]1 | 109 to 111
104 | O=C(O)c1cc(Br)c(S(=O)(=O)Cl)c(Br)c1 | 199 to 201
105 | Nc1ccc(-c2cc3ccccc3o2)cc1 | 281 to 283
106 | Nc1nnc(-c2ccccn2)s1 | 260 to 262
107 | O=C(O)c1c[nH]c2ccc(I)cc2c1=O | 286 to 288
108 | Sc1nnc(-c2ccc3ccccc3c2)o1 | 226 to 228
109 | O=C(O)c1cc(-c2ccc(F)cc2)nc2ccccc12 | 193 to 197
110 | O=C(O)CNC(=O)C(F)(F)F | 152 to 154
111 | Nc1nc(-c2c(F)cccc2F)n[nH]1 | 218 to 220
112 | O=C(O)c1cc(C2CC2)nc2ccc(Cl)cc12 | 211 to 213
113 | N#CCC(=O)N(CC(F)(F)F)C1CC1 | 69 to 71
114 | COc1ccc(N2CCN(C(=O)CCCl)CC2)cc1 | 73 to 75
115 | O=C(CCl)NC1CCOc2ccccc21 (stereo not drawn) | 86 to 88
116 | Nc1nc(-c2c(F)cccc2F)cs1 | 179 to 181
117 | Cc1nn(C(C)C)c(C)c1NC(=O)OCC(F)(F)F | 185 to 187
118 | Cc1ccc(C)c(S(N)(=O)=O)c1 | 149 to 151
119 | NCc1nnn[nH]1 | 269 to 271
120 | OC1CN(c2ccc(C(F)(F)F)cn2)C1 | 136 to 138

Row | Structure (SMILES) | melting point [°C]
121 | O=C(O)C(c1ccccc1F)N1CCOCC1 (stereo not drawn) | 189 to 191
122 | O=Cc1ccc(OCc2occc2C(=O)O)cc1 | 145 to 147
123 | COc1ccc(NC(=O)Nc2ccc(OC)nc2)cn1 | 215 to 217
124 | Cc1cc(C(C)(C)C)cc(C)c1CCNC(=O)CCl | 114 to 116
125 | CCOC(=O)C(=O)c1csc(N)n1 | 78 to 80
126 | Nc1ccc(Oc2cnccn2)cc1 | 138 to 140
127 | N#Cc1sc2ccccc2c1N | 155 to 157
128 | CC(=O)N1CCN(S(=O)(=O)c2ccc(C(=O)O)cc2)CC1 | 277 to 279
129 | COc1c(C(=O)O)c(C)nn1C | 172 to 174
130 | CCOC(=O)c1c(-c2ccc(C)s2)csc1N | 93 to 95
131 | CC(C)(C)OC(=O)N1CC(OCCC(=O)O)C1 | 52 to 54
132 | CCC(CC)n1nccc1C(=O)O | 137 to 139
133 | Cc1c(O)ccc2c(CCl)cc(=O)oc12 | 268 to 270
134 | COc1cc(Br)cc(OC)c1O | 99 to 101
135 | O=C(O)c1c[nH]c2cccc(Br)c12 | 159 to 161
136 | c1ccc2c(c1)CC(n1ccnc1)CN2 (stereo not drawn) | 110 to 112
137 | CS(=O)(=O)N1CCCCC1C(=O)O (stereo not drawn) | 74 to 76
138 | CCC(=O)c1c(C)nn(C)c1C | 50 to 52
139 | Nc1cc(-c2ccc(Cl)cc2)nn1-c1ccccc1 | 191 to 193
140 | O=C(O)c1c[nH]nc1-c1ccc(F)c(Cl)c1 | 282 to 284
141 | NC(=O)Cc1ccc2c(c1)CCC2 | 166 to 168
142 | O=C(Nc1nccs1)OCC(F)(F)F | 167 to 169
143 | CC(C(=O)O)N1CCCCC1=O (stereo not drawn) | 134 to 136
